The first experiment deals with T1, Human glucocorticoid receptors (Homo sapiens, UniProt P04150).
T1 construct: made in house; host or cells: Sf9 insect cells, recombinant baculovirus (BAC-TO-BAC)
T1 sequence (P04150 1-777): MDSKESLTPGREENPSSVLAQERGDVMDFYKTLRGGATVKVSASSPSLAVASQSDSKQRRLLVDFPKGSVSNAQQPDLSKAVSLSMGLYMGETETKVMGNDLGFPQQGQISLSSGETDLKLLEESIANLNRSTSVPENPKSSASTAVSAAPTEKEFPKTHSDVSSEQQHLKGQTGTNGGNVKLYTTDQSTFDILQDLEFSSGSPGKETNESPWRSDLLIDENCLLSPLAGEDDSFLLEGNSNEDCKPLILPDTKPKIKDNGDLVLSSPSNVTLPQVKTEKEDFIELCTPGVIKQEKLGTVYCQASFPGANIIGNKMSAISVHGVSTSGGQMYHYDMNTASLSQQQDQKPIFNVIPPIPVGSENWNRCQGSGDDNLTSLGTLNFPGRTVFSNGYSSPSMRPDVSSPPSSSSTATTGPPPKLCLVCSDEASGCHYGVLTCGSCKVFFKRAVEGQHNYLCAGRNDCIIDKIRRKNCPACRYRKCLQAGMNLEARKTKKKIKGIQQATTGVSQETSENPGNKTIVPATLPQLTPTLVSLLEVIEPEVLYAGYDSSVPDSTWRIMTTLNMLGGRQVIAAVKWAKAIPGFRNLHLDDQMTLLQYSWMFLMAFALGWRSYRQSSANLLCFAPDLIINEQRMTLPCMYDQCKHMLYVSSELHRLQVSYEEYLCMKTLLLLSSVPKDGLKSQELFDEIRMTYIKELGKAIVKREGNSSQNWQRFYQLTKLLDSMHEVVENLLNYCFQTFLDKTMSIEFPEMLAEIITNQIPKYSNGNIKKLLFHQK
The experiment is described as follows: Radioligand filter binding assay, displacement of 3(H)-dexamethasone from human glucocorticoid receptor cytosol. To be noted: 1.7 μM test compound; inhibition of 3(H)-dex binding to hGR.
Method: Dexamethasone hereafter referred to as dex was purchased from SIGMA. […] Human glucocorticoid receptors were extracted from Sf9 cells infected with a recombinant baculovirus transfer vector containing the cloned hGR genes. […] The recombinant baculovi, uses expressing hGR were amplified and used to infect Sf9 cells. Infected cells were harvested 48 hrs post infection. […] The concentration of hGR in the extract was measured as specific ^3(H)-dex binding with the G25-assay as described in J. Steroid Biochem. Molec. […] The extract was aliquoted and stored at −70° C.
The filter binding assay: Dilution series of the test compounds and dex as reference were made from 10 mM (1 mM dex) stock solutions in DMSO. 10 μl of the dilutions was added in duplicates to the wells. The cell extracts were diluted 10 fold in EPMo +MTG buffer (1 mM EDTA, HPO4 20 mM (pH8), 6 mM MTG). […] 110 μl of the diluted ^3(H)-dex were added to the wells. The final concentration of hGR in the experiment was estimated to 1 nM. All preparations were made in ambient temperature (20-25° C.) on ice and with +4° C. temperated buffers. The plates were incubated over night at +4° C. (15-20hrs).
The incubation was stopped by filtration through GF/B filter on the Tomtec Cellharvester. The filtration on the Tomtec Cellharvester was programmed as follows: 1) Preparation before filtration with EP buffer (1 mM EDTA 20 mM HPO4 (pH8)) 2×(Wash/Asp 0.6 sec., Asp 0.5 sec.); 2) Prewet of GF/B filter with EP+PEI buffer (EP buffer, 0.3% Polyesthylenimine) (Asp 0.8 sec.). 3) Filtration/harvesting of the 96-well incubation plate 3×(Wash/Asp 0.6 sec., Asp 0.5 sec.). The GF/B filter was dried for at least 1 hr at 65° C. A MeltiLex scintillation wax was melted onto the filter with the Microsealer. The filter was placed in a samplebag, which was thereafter trimmed with scissors to fit the filter cassette. The cassette were placed in the Microbeta and measured for 1 min/position, returning ccpm (conrected counts per minute).
The Microbeta-instrument generates the mean cpm (counts per minute) value/minute and corrects for individual variations between the detectors thus generating corrected cpm values.
As to `CCS(=O)(=O)Nc1ccc2c(c1)C(c1ccccc1)Oc1cccc(OC)c1-2` (centres unmarked) [Example 7, (1-methoxy-6-phenyl-6H-dibenzo(b,d)pyran-8-yl)ethanesulfonamide], the “GR BINDING (% Inhibition @ 1.7 μM)” value was found to be 90.6%.
As to `COCCNC(=O)c1cccc(C2Oc3cccc(OC)c3-c3ccc(NS(C)(=O)=O)cc32)c1` (centres unmarked) [Example 64, (1-methoxy-6-(3-(2-methoxyethyl)aminocarbonyl)phenyl-6H-dibenzo(b,d)pyran-8-yl)-methanesulfonamide], the “GR BINDING (% Inhibition @ 1.7 μM)” value worked out at 44.3%.
Same read-out and setting: with `COc1cccc2c1-c1ccc(NS(=O)(=O)C(C)C)cc1C(c1ccccc1)O2` (centres unmarked) [Example 8, (1-methoxy-6-phenyl-6H-dibenzo(b,d)pyran-8-yl)isopropanesulfonamide] the figure was 87.9%; with `COc1cccc2c1-c1ccc(CS(N)(=O)=O)cc1C(C1CCCCC1=O)O2` (centres unmarked) [Example 72, (1-methoxy-6-(2-(1-oxocyclohexyl))-6H-dibenzo(b,d)pyran-8-yl)methanesulfonamide], 58.8%; with `COc1cccc2c1-c1ccc(NS(C)(=O)=O)cc1[C@@H](c1ccccc1)O2` [Example 23, 6R-(1-methoxy-6-phenyl-6H-dibenzo(b,d)pyran-8-yl)methanesulfonamide], 36.9%.
In the case of `COc1cccc2c1-c1ccc(NC(=O)C(C)C)cc1C(c1ccccc1)O2` (centres unmarked) [Example 14], the “GR BINDING (% Inhibition @ 1.7 μM)” value worked out at 85.1%.

Staying with this experiment, now noted: 1.7 μM test compound; inhibition of 3(H)-dex binding to hGR; read-out: GR BINDING (% Inhibition @ 1.7 μM).
What is called inhibition is the drop in the measured response relative to a control, in per cent. For the compound `CS(=O)(=O)Nc1ccc2c(c1)C(c1cccc(CCCC(=O)O)c1)Oc1cccc(OC(F)F)c1-2` (centres unmarked) [Example 121, 4-(3-{1-(difluoromethoxy)-8-[(methylsulfonyl)amino]-6H-benzo[c]chromen-6-yl}phenyl)butanoic acid], the inhibition at 1.7 µM is 76.6%.
`COc1cccc2c1-c1ccc(NS(C)(=O)=O)cc1C(c1ccc(/C=C/c3ccccc3)s1)O2` (centres unmarked) [Example 101, N-(1-methoxy-6-{5-[(E)-2-phenylethenyl]-2-thienyl}-6H-benzo[c]chromen-8-yl)methanesulfonamide]: the inhibition at 1.7 µM was found to be 91.3%.
Turning to `COc1cccc2c1-c1ccc(NS(C)(=O)=O)cc1C(c1cccc(N(C)C(C)=O)c1)O2` (centres unmarked) [Example 110, N-(3-{1-methoxy-8-[(methylsulfonyl)amino]-6H-benzo[c]chromen-6-yl}phenyl)-N-methylacetamide], the inhibition at 1.7 µM was 74.8%.
Take `COc1cccc2c1-c1ccc(NS(C)(=O)=O)cc1C(c1cccc(CCCC(=O)N3CCCCC3)c1)O2` (centres unmarked) [Example 142, N-(1-methoxy-6-{3-[4-oxo-4-(1-piperidinyl)butyl]phenyl}-6H-benzo[c]chromen-8-yl)methanesulfonamide]: the inhibition at 1.7 µM is 78.2%.
`COc1ccc(S(=O)(=O)N(C)c2cccc(C3Oc4cccc(OC)c4-c4ccc(NS(C)(=O)=O)cc43)c2)cc1` (centres unmarked) [Example 148, 4-methoxy-N-(3-{1-methoxy-8-[(methylsulfonyl)amino]-6H-benzo[c]chromen-6-yl}phenyl)-N-methylbenzenesulfonamide]: the inhibition at 1.7 µM stood at 82.7%.
Regarding `CCOC(=O)C(C)CCCc1cccc(C2Oc3cccc(OC(F)F)c3-c3ccc(NS(C)(=O)=O)cc32)c1` (centres unmarked) [Example 135, ethyl 5-(3-{1-(difluoromethoxy)-8-[(methylsulfonyl)amino]-6H-benzo[c]chromen-6-yl}phenyl)-2-methylpentanoate], the inhibition at 1.7 µM was 83.7%.
For the compound `C=CCOc1cccc2c1-c1ccc(NS(C)(=O)=O)cc1C(c1ccccc1)O2` (centres unmarked) [Example 78, N-[1-(allyloxy)-6-phenyl-6H-benzo[c]chromen-8-yl]methanesulfonamide], the inhibition at 1.7 µM was 77.9%.
In the case of `CC(=O)c1cccc2c1-c1ccc(NS(C)(=O)=O)cc1C(c1ccccc1)O2` (centres unmarked) [Example 38], the inhibition at 1.7 µM is 58.9%.
For `COc1cccc2c1-c1ccc(NS(C)(=O)=O)cc1C(c1cccc(CCCCC#N)c1)O2` (centres unmarked) [Example 113, N-{6-[3-(4-cyanobutyl)phenyl]-1-methoxy-6H-benzo[c]chromen-8-yl}methanesulfonamide], the inhibition at 1.7 µM worked out at 87.7%.
`COc1cccc2c1-c1ccc(NS(=O)(=O)/C=C/c3ccccc3)cc1C(c1ccccc1)O2` (centres unmarked) [Example 11, (1-methoxy-6-phenyl-6H-dibenzo(b,d)pyran-8-yl)-(2-phenyl-E-ethenyl) sulfonamide]: the inhibition at 1.7 µM turned out to be 57.8%.
Still for that read-out and setting: the value for `COc1cccc2c1-c1ccc(NS(C)(=O)=O)cc1C(c1cccc(-c3ccc(C(=O)O)cc3)c1)O2` (centres unmarked) [Example 122, 3′-{1-methoxy-8-[(methylsulfonyl)amino]-6H-benzo[c]chromen-6-yl}[1,1′-biphenyl]-4-carboxylic acid] was 63.8%.
As for `COc1cccc2c1-c1ccc(NS(C)(=O)=O)cc1C(C#N)O2` (centres unmarked) [Example 90, N-(6-cyano-1-methoxy-6H-benzo[c]chromen-8-yl)methanesulfonamide], the inhibition at 1.7 µM came out at 55.1%.
Still for that read-out and setting: with `COc1cccc2c1-c1ccc(CC(N)=O)cc1C(c1ccccc1)O2` (centres unmarked) [Example 12, (1-methoxy-6-phenyl-6H-dibenzo(b,d)pyran-8-yl)acetamide] the figure was 86.1%; with `CCOC(=O)CCCCCC1Oc2cccc(OC)c2-c2ccc(NS(C)(=O)=O)cc21` (centres unmarked) [Example 79, ethyl 6-{1-methoxy-8-[(methylsulfonyl)amino]-6H-benzo[c]chromen-6-yl}hexanoate], 66.1%.
As for `COc1cccc2c1-c1ccc(NS(C)(=O)=O)cc1C(Cc1cc(F)cc(F)c1)O2` (centres unmarked) [Example 85, N-[6-(3,5-difluorobenzyl)-1-methoxy-6H-benzo[c]chromen-8-yl]methanesulfonamide], the inhibition at 1.7 µM was determined as 81.6%.
As to `COc1cccc2c1-c1ccc(NCC3CC3)cc1C(c1ccccc1)O2` (centres unmarked) [Example 20, (1-methoxy-6-phenyl-6H-dibenzo(b,d)pyran-8-yl)cyclopropylmethylamine], the inhibition at 1.7 µM stood at 54.4%.
Same read-out and setting: the value for `C=Cc1cccc2c1-c1ccc(NS(C)(=O)=O)cc1C(c1ccccc1)O2` (racemic) [Example 37] was 94.8%; that for `COc1cccc2c1-c1ccc(NC(=O)C(F)(F)F)cc1C(c1ccccc1)O2` (centres unmarked) [Example 22, (1-methoxy-6-phenyl-6H-dibenzo(b,d)pyran-8-yl)trifluoroacetamide] was 87.9%; that for `CS(=O)(=O)Nc1ccc2c(c1)C(c1ccccc1)Oc1cccc(CO)c1-2` (centres unmarked) [Example 104, N-[1-(hydroxymethyl)-6-phenyl-6H-benzo[c]chromen-8-yl]methanesulfonamide] was 86.8%.
Turning to `COc1cccc2c1-c1ccc(CCN)cc1C(c1ccccc1)O2` (centres unmarked) [Example 19, (1-methoxy-6-phenyl-6H-dibenzo(b,d)pyran-8-yl)ethylamine], the inhibition at 1.7 µM was 66%.
Take `COc1cccc2c1-c1ccc(NS(C)(=O)=O)cc1C(c1cccc(CCCC#N)c1)O2` (centres unmarked) [Example 112, N-{6-[3-(3-cyanopropyl)phenyl]-1-methoxy-6H-benzo[c]chromen-8-yl}methanesulfonamide]: the inhibition at 1.7 µM is 91.7%.
In the case of `CCOC(=O)CCC1Oc2cccc(OC)c2-c2ccc(NS(C)(=O)=O)cc21` (centres unmarked) [Example 46], the inhibition at 1.7 µM is 84.6%.
Consider `COc1cccc2c1-c1ccc(NS(C)(=O)=O)cc1C(/C=C/c1ccccc1)O2` (centres unmarked) [Example 89, N-{1-methoxy-6-[(E)-2-phenylethenyl]-6H-benzo[c]chromen-8-yl}methanesulfonamide], for which the inhibition at 1.7 µM is 86.1%.
Consider `CCCC1Oc2cccc(OC(F)F)c2-c2ccc(NS(C)(=O)=O)cc21` (racemic) [Example 27], for which the inhibition at 1.7 µM was 86.8%.
On the same count and under the same terms, with `CCOC(=O)CCCc1cccc(C2Oc3cccc(OC(F)F)c3-c3ccc(NS(C)(=O)=O)cc32)c1` (centres unmarked) [Example 115, ethyl 4-(3-{1-(difluoromethoxy)-8-[(methylsulfonyl)amino]-6H-benzo[c]chromen-6-yl}phenyl)butanoate] the figure was 83.5%; with `C=CCOc1ccc2c(c1OC)-c1ccc(NS(C)(=O)=O)cc1C(c1ccccc1)O2` (centres unmarked) [Example 105, N-[2-(allyloxy)-1-methoxy-6-phenyl-6H-benzo[c]chromen-8-yl]methanesulfonamide], 83.5%.
In the case of `CCOC(=O)/C=C/COc1cccc(C2Oc3cccc(OC)c3-c3ccc(NS(C)(=O)=O)cc32)c1` (centres unmarked) [Example 94, ethyl (2E)-4-(3-{1-methoxy-8-[(methylsulfonyl)amino]-6H-benzo[c]chromen-6-yl}phenoxy)-2-butenoate], the inhibition at 1.7 µM stood at 79.6%.
Turning to `COCCCCCCc1cccc(C2Oc3cccc(OC(F)F)c3-c3ccc(NS(C)(=O)=O)cc32)c1` (centres unmarked) [Example 141, N-{1-(difluoromethoxy)-6-[3-(6-methoxyhexyl)phenyl]-6H-benzo[c]chromen-8-yl}methanesulfonamide], the inhibition at 1.7 µM was found to be 93.6%.
`CCCN(C)c1ccc(C2Oc3cccc(OC(F)F)c3-c3ccc(N)c(Br)c32)cc1` (centres unmarked) [Example 29, (1-difluoromethoxy-6-(4-(N-propyl-N-methylamino)phenyl)-7-bromo-6H-dibenzo(b,d)pyran-8-yl)-amine]: the inhibition at 1.7 µM was found to be 55%.
